In PMC11181022, “The molecular architecture of Lactobacillus S-layer: Assembly and attachment to teichoic acids” (Proceedings of the National Academy of Sciences of the …, 2024):

Target: T1, SlpA_amy_III (SlpA_amy_D3) (Lactobacillus amylovorus, UniProt E4SK47)
T1 construct: gene LA2_00970; His-tagged, 15N-labelled, expressed in E. coli BL21 DE
T1 sequence (E4SK47 322-456): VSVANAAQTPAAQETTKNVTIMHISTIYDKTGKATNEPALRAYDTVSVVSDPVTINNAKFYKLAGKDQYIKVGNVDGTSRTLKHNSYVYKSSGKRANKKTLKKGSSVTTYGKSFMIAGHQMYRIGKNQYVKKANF
Assay: 1H-15N HSQC NMR titration, mean Kd of per-residue shift fits
Settings: 20 mM ADA, 50 mM NaCl, pH 6.5, 25 C, two binding areas TAB1 and TAB2

Row | Substance | Kd (300 uM protein) [µM] | Kd (200 uM protein) [µM]
1 | GroP trimer | 3500 | 
2 | GroP pentamer |  | 500
